US20060116390A1, “Hepatitis c virus inhibitors” (priority 2003, published 2006)
Read-outs that look alike come from different tables or passages of the source.

Tested on: HCV proteins in Rep5.1 cells (replicon cell line)
Experiment: Inhibitory activity of HCV: cell-based ELISA in replicon cell line Rep5.1 (decrease of HCV proteins)
Set-up: species or system hepatitis C virus
Details: Hepatitis C virus, 72 h, Rep5.1 cells, 72 hours with drug
Summary of the method: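 Rep5.1 replicon cells (5000/well, DMEM-10 with 500 μg/ml G418) were given serially diluted drug 4 h after seeding. After 72 h, cells were fixed in methanol/acetone and HCV proteins detected by cell-based ELISA using replicon-specific patient plasma antibodies. IC50 is the concentration giving 50% protein decrease versus the no-drug control.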

[1] = concentration at which 50% of HCV proteins was decreased, Table 2, read-out: IC50
[2] = decrease of HCV proteins measured by HCV antibody, Table 1, read-out: Level (IC50 values classified)

Structure (SMILES)	IC50 [1]	IC50 [2]
CCOc1ccccc1CCOC(=O)C1=C(C)NC(=S)NC1CS(=O)(=O)C(C)(C)C (stereo not drawn) [30″, 6-methyl-4-(2-methyl-propane-2-sulfonylmethyl)-2-thioxo-1,2,3,4-tetrahydro-pyrimidine-5-carboxylic acid 2-(2-ethoxy-phenyl)-ethyl ester]	50 µM	> 20 µM
CC1=C(C(=O)OCc2ccc(S(C)(=O)=O)cc2)CNC(=S)N1 [Compound 74, 6-methyl-2-thioxo-1,2,3,4-tetrahydro-pyrimidine-5-carboxylic acid 4-methanesulfonyl-benzyl ester]	> 100 µM	> 20 µM
CCN(CC)c1ccc(CCOC(=O)C2=C(C)NC(=S)NC2CO)cc1[N+](=O)[O-] (stereo not drawn) [91″, 4-Hydroxymethyl-6-methyl-2-thioxo-1,2,3,4-tetrahydro-pyrimidine-5-carboxylic acid 2-(4-diethylamino-3-nitro-phenyl)-ethyl ester]	0.7 µM	< 1 µM
CC1=C(C(=O)OCCc2cccc(C(F)(F)F)c2)C(CO)NC(=S)N1 (stereo not drawn) [38″, 4-hydroxymethyl-6-methyl-2-thioxo-1,2,3,4-tetrahydro-pyrimidine-5-carboxylic acid 2-(3-trifluoromethyl-phenyl)-ethyl ester]	< 0.4 µM	< 1 µM
CC1=C(C(=O)OCc2ccc(N(C)C)cc2)CNC(=S)N1 [Compound 79, 6-methyl-2-thioxo-1,2,3,4-tetrahydro-pyrimidine-5-carboxylic acid 4-dimethylamino-benzyl ester]	1.3 µM	1 to 10 µM
CC1=C(C(=O)OCn2nnc3ccccc32)CNC(=S)N1 [Compound 225, 6-methyl-2-thioxo-1,2,3,4-tetrahydro-pyrimidine-5-carboxylic acid benzotriazol-1-ylmethyl ester]	> 100 µM	> 20 µM
CC1=C(C(=O)OCc2cccc([N+](=O)[O-])c2)CNC(=S)N1 [Compound 77, 6-methyl-2-thioxo-1,2,3,4-tetrahydro-pyrimidine-5-carboxylic acid 3-nitro-benzyl ester]	2.3 µM	1 to 10 µM
COc1ccc(COC(=O)C2=C(C)NC(=S)NC2)c(OC)c1C [Compound 137, 6-methyl-2-thioxo-1,2,3,4-tetrahydro-pyrimidine-5-carboxylic acid 2,4-dimethoxy-3-methyl-benzyl ester]	10 µM	1 to 10 µM
CC1=C(C(=O)OCCc2ccccc2[N+](=O)[O-])C(CF)NC(=S)N1 (stereo not drawn) [77′, 4-fluoromethyl-6-methyl-2-thioxo-1,2,3,4-tetrahydro-pyrimidine-5-carboxylic acid 2-(2-nitro-phenyl)-ethyl ester]	39 µM	> 20 µM
O=C(O)CCCC1=C(C(=O)OCc2ccccc2)CNC(=S)N1 [Compound 170, 6-(3-carboxy-propyl)-2-thioxo-1,2,3,4-tetrahydro-pyrimidine-5-carboxylic acid benzyl ester]	90 µM	> 20 µM
CC1=C(C(=O)OC(c2ccccc2)c2ccccc2C)CNC(=S)N1 (stereo not drawn) [Compound 57, 6-methyl-2-thioxo-1,2,3,4-tetrahydro-pyrimidine-5-carboxylic acid phenyl-o-tolyl-methyl ester]	3.5 µM	1 to 10 µM
CC1=C(C(=O)OCc2cc(Br)cs2)CNC(=S)N1 [Compound 204, 6-methyl-2-thioxo-1,2,3,4-tetrahydro-pyrimidine-5-carboxylic acid 4-bromo-thiophen-2-ylmethyl ester]	< 0.4 µM	< 1 µM
CC1=C(C(=O)OCc2cc(Cl)cc(Cl)c2)C(CO)NC(=S)N1 (stereo not drawn) [34″, 4-hydroxymethyl-6-methyl-2-thioxo-1,2,3,4-tetrahydro-pyrimidine-5-carboxylic acid 3,5-dichloro-benzyl ester]	2.6 µM	1 to 10 µM
C=C(Br)CCOC(=O)C1=C(C)NC(=S)NC1 [Compound 99, 6-methyl-2-thioxo-1,2,3,4-tetrahydro-pyrimidine-5-carboxylic acid 3-bromo-but-3-enyl ester]	1.8 µM	1 to 10 µM
CC1=C(C(=O)OCCCc2cc3ccccc3s2)C(CF)NC(=S)N1 (stereo not drawn) [58′, 4-fluoromethyl-6-methyl-2-thioxo-1,2,3,4-tetrahydro-pyrimidine-5-carboxylic acid 3-benzo[b]thiophen-2-yl-propyl ester]	8 µM	1 to 10 µM
CC1=C(C(=O)OCc2sccc2C)CNC(=S)N1 [Compound 202, 6-methyl-2-thioxo-1,2,3,4-tetrahydro-pyrimidine-5-carboxylic acid 3-methyl-thiophen-2-ylmethyl ester]	9 µM	1 to 10 µM
CCOC(=O)COC(=O)OCC1NC(=S)NC(C)=C1C(=O)OCCc1cccc([N+](=O)[O-])c1 (stereo not drawn) [83″, 4-ethoxycarbonylmethoxycarbonyloxymethyl-6-methyl-2-thioxo-1,2,3,4-tetrahydro-pyrimidine-5-carboxylic acid 2-(3-nitro-phenyl)-ethyl ester]	6.1 µM	1 to 10 µM

Structure (SMILES)	IC50 [1]	IC50 [2]
CC1=C(C(=O)OC2CCN(Cc3ccccc3)CC2)CNC(=S)N1 [Compound 86, 6-methyl-2-thioxo-1,2,3,4-tetrahydro-pyrimidine-5-carboxylic acid 1-benzyl-piperidin-4-yl ester]	> 100 µM	> 20 µM
CC1=C(C(=O)OCc2cc(Cl)ccc2[N+](=O)[O-])CNC(=S)N1 [Compound 143, 6-methyl-2-thioxo-1,2,3,4-tetrahydro-pyrimidine-5-carboxylic acid 5-chloro-2-nitro-benzyl ester]	0.4 µM	< 1 µM
CC1=C(C(=O)OCc2cc3c(C)nn(C)c3s2)CNC(=S)N1 [Compound 223, 6-methyl-2-thioxo-1,2,3,4-tetrahydro-pyrimidine-5-carboxylic acid 1,3-dimethyl-1H-thieno[2,3-c]pyrazol-5-ylmethyl ester]	6 µM	1 to 10 µM
CCN(c1ccc(CCOC(=O)C2=C(C)NC(=S)NC2CO)cc1[N+](=O)[O-])C1CC1 (stereo not drawn) [94″, 4-Hydroxymethyl-6-methyl-2-thioxo-1,2,3,4-tetrahydro-pyrimidine-5-carboxylic acid 2-[4-(cyclopropyl-ethyl-amino)-3-nitro-phenyl]-ethyl ester]	0.8 µM	< 1 µM
CC1=C(C(=O)OCc2ccc(F)cc2Cl)C(CF)NC(=S)N1 (stereo not drawn) [79′, 4-fluoromethyl-6-methyl-2-thioxo-1,2,3,4-tetrahydro-pyrimidine-5-carboxylic acid 2-chloro-4-fluoro-benzyl ester]	1 µM	< 1 µM
CCc1ccc(COC(=O)C2=C(C)NC(=S)NC2)o1 [Compound 264, 6-methyl-2-thioxo-1,2,3,4-tetrahydro-pyrimidine-5-carboxylic acid 5-ethyl-furan-2-ylmethyl ester]	13 µM	10 to 20 µM
CC1=C(C(=O)OCCc2cc(F)cc(F)c2)C(CF)NC(=S)N1 (stereo not drawn) [85′, 4-fluoromethyl-6-methyl-2-thioxo-1,2,3,4-tetrahydro-pyrimidine-5-carboxylic acid 2-(3,5-difluoro-phenyl)-ethyl ester]	2.7 µM	1 to 10 µM
CCCCCCCCNC(=O)CCCCCOC(=O)C1=C(C)NC(=S)NC1 [19′, 6-methyl-2-thioxo-1,2,3,4-tetrahydro-pyrimidine-5-carboxylic acid 5-octylcarbamoyl-pentyl ester]	> 100 µM	> 20 µM
CC1=C(C(=O)OCCc2ccc(F)cc2Cl)C(CF)NC(=S)N1 (stereo not drawn) [86′, 4-fluoromethyl-6-methyl-2-thioxo-1,2,3,4-tetrahydro-pyrimidine-5-carboxylic acid 2-(2-chloro-4-fluoro-phenyl)-ethyl ester]	< 0.4 µM	< 1 µM
CC1=C(C(=O)OCCCc2sccc2C)C(CO)NC(=S)N1 (stereo not drawn) [17″, 4-hydroxymethyl-6-methyl-2-thioxo-1,2,3,4-tetrahydro-pyrimidine-5-carboxylic acid 3-(3-methyl-thiophen-2-yl)-propyl ester]	9 µM	1 to 10 µM
CCCOc1ccc(COC(=O)C2=C(C)NC(=S)NC2)cc1 [Compound 78, 6-methyl-2-thioxo-1,2,3,4-tetrahydro-pyrimidine-5-carboxylic acid 4-propoxy-benzyl ester]	1 µM	< 1 µM
CCOc1ccc(COC(=O)C2=C(C)NC(=S)NC2)cc1 [Compound 71, 6-methyl-2-thioxo-1,2,3,4-tetrahydro-pyrimidine-5-carboxylic acid 4-ethoxy-benzyl ester]	2.5 µM	1 to 10 µM
CC1=C(C(=O)OCc2ccc([N+](=O)[O-])cc2)CNC(=S)N1 [Compound 7, 6-methyl-2-thioxo-1,2,3,4-tetrahydro-pyrimidine-5-carboxylic acid 4-nitro-benzyl ester]	2.5 µM	1 to 10 µM
CCOc1ccccc1CCOC(=O)C1=C(C)NC(=S)NC1CF (stereo not drawn) [Compound 274, 4-fluoromethyl-6-methyl-2-thioxo-1,2,3,4-tetrahydro-pyrimidine-5-carboxylic acid 2-(2-ethoxy-phenyl)-ethyl ester]	> 100 µM	> 20 µM
COc1cscc1CCOC(=O)C1=C(C)NC(=S)NC1CF (stereo not drawn) [41′, 4-fluoromethyl-6-methyl-2-thioxo-1,2,3,4-tetrahydro-pyrimidine-5-carboxylic acid 2-(4-methoxy-thiophen-3-yl)-ethyl ester]	15 µM	10 to 20 µM
CCCCC(C)OC(=O)C1=C(C)NC(=S)NC1 (stereo not drawn) [Compound 39, 6-methyl-2-thioxo-1,2,3,4-tetrahydro-pyrimidine-5-carboxylic acid 1-methyl-pentyl ester]	0.5 µM	< 1 µM
